Data taken from publication PMC6856805, “Environmental Risk Assessment for the Active Pharmaceutical Ingredient Mycophenolic Acid in European Surface Waters” (Environmental Toxicology and Chemistry, 2019).
Converted amounts (≈) assume the structure as drawn. Where two headings read alike, the source gives them in different places.

Columns and labels:
[1] = Solubility in buffered aqueous solutions; assay type: physicochemical; conditions: buffered aqueous solution, 25 °C, aqueous buffer, read-out: Solubility in water
Excerpt: (§1) Syntex derived many basic physicochemical properties for both MPM and MPA in the early 1990s. The results for MPA are mostly given in the present study.

[2] = Screening vapor pressure; assay type: physicochemical
Excerpt: as §1
The vapour pressure of MPA was estimated by Syntex by comparing losses of MPA under a nitrogen stream with losses in capped vials and comparing the results with the same losses of a reference substance of known vapour pressure (Young & Licato 1994a).

[3] = Screening hydrolysis test; assay type: physicochemical; conditions: 5 d
Procedure: as §1
A screening hydolysis test was performed by Syntex with MPA in 0.1 M buffered solutions in triplicate at pH 5, 7 and 9 over 5 days at 50 °C, with HPLC determination of MPA at the start and end of the exposure, 'closely following US Food and Drug Administration 1987 Environmental Assessment Technical Assistance Handbook recommendations' (Young & Licato 1994b).

[4] = tested on: Daphnia magna; experiment: OECD 211 chronic reproduction test; assay type: in vivo; conditions: GMMC
Procedure: An OECD 211 chronic reproduction test with the cladoceran Daphnia magna was performed by ECT Oekotoxikologie with a series of concentrations of MPA in daphnid test medium plus medium-only controls over 21 days (Egeler & Chambers 2018). The test medium was exchanged every 2–3 days, the daphnids were fed with live algae (Desmodesmus subspicatus) throughout the exposure. Fresh and old medium samples were analysed by LC–MS/MS (Supplemental Information) and the time-weighted mean measured concentrations (TWMMC) for the concentrations determined. Statistical data evaluation was performed using Williams's test, Fisher's Exact test, Multiple sequentially rejective U-test after Bonferroni-Holm and Probit analysis. The endpoints in this test were survival and size (length) of the parental daphnids at the end of the test; number of young daphnids released per surviving F0 mother; any malformations or undeveloped eggs; and the intrinsic rate of reproduction (IRR), which integrates both survival and reproduction, as a measure of longer-term stability (IRR ~1), growth (IRR >1) or decline (IRR <1) of a population.

[5] = Risk quotient PEC/PNEC or MEC/PNEC for STPs and surface freshwaters
Procedure: The potential risk for STPs and surface freshwater organisms was characterized by dividing the various PECs and MECs by the respective PNECs for MPA (Committee for Medicinal Products for Human Use 2015). Further risk assessments were performed for antibiotic resistance risk due to the described antibiotic activity of MPA, risk for environmental top predators, and also risk for humans through so‐called secondary poisoning from uptake of water or fish.

[6] = cited from earlier work; for k photo: ref Franquet‐Griell et al. (2017a)
[7] = set-up: method as in FASS 2018; conditions: OECD 209; ref FASS 2018; cited from earlier work
[8] = tested on: Wistar rat embryos, murine embryonic stem cells, and mouse fibroblasts; set-up: method as in Eckardt and Stahlmann 2010; conditions: mammalian systems; ref Eckardt and Stahlmann 2010; cited from earlier work
[9] = tested on: daphnid; experiment: animal or person; conditions: read-out: 48‐h median effect concentration (EC50)

COc1c(C)c2c(c(O)c1CC=C(C)CCC(=O)O)C(=O)OC2 [MPA, 6‐(1,3‐dihydro‐4‐hydroxy‐6‐methoxy‐7‐methyl‐3‐oxo‐5‐isobenzofuranyl)‐4‐methyl‐4‐hexenoic acid]
solubility ([1]; pH 5, 25 ± 2 °C): 45 µg/mL (≈ 140 µM) | solubility ([1]; pH 7, 25 ± 2 °C): 710 µg/mL (≈ 2220 µM) | Vapor pressure [2]: < 10^–6 hPa | Screening hydrolysis ([3]; pH 5, 50 °C): 46.15 % Substance loss | Screening hydrolysis ([3]; pH 7, 50 °C): 29.03 % Substance loss | Screening hydrolysis ([3]; pH 9, 50 °C): 36.67 % Substance loss | EC10, fecundity and reproduction ([4]; 21 d): 0.929 µg/mL (≈ 2.9 µM) | LOEC, fecundity and reproduction ([4]; 21 d): 1800 µg/L | LOEC, length of parental daphnids ([4]; 21 d): 1800 µg/L | NOEC, fecundity and reproduction ([4]; 21 d): 630 µg MPA/L | NOEC, length of parental daphnids ([4]; 21 d): 630 µg/L | LOEC, mortality/immobility of parental daphnids and intrinsic rate of population increase [4]: > 7530 µg/L | overall EC10 for the daphnids [4]: 0.929 µg/mL | overall NOEC for the daphnids [4]: 630 µg MPA/L | NOEC, mortality/immobility of parental daphnids and intrinsic rate of population increase ([4]; highest tested concentration): 7530 µg MPA/L | highest PEC‐based risk quotient for STPs ([5]; PECSTP 8.83 µg/L / PNECSTP): 0.00128 | highest MEC‐based risk quotient for STPs ([5]; STP effluent MEC 4.19 µg/L / PNECSTP): 0.0006 | Risk quotient (PNECEC10), Average initial EMA EU PEC ([5]; STP removal 0%): 0.516 | Risk quotient (PNECEC10), Average refined PEC per country ([5]; STP removal 12%): 0.141 | Risk quotient (PNECEC10), Guadalquivir catchment low flow 99th percentile ePiE PEC ([5]; STP removal 12%): 21.41 | Risk quotient (PNECEC10), Guadalquivir catchment low flow median ePiE PEC ([5]; STP removal 12%): <0.002 | Risk quotient (PNECEC10), Guadalquivir catchment mean flow 1st percentile ePiE PEC ([5]; STP removal 12%): <0.002 | Risk quotient (PNECEC10), Guadalquivir catchment mean flow 99th percentile ePiE PEC ([5]; STP removal 12%): 9.474 | Risk quotient (PNECEC10), Guadalquivir catchment mean flow median ePiE PEC ([5]; STP removal 12%): <0.002 | Risk quotient (PNECEC10), Highest refined PEC per country ([5]; STP removal 12%): 0.917 | Risk quotient (PNECEC10), Lowest refined PEC per country ([5]; STP removal 12%): 0.003 | Risk quotient (PNECEC10), Median refined PEC per country ([5]; STP removal 12%): 0.100 | Risk quotient (PNECEC10), Ouse catchment low flow 99th percentile ePiE PEC ([5]; STP removal 12%): 4.967 | Risk quotient (PNECEC10), Ouse catchment low flow median ePiE PEC ([5]; STP removal 12%): 0.336 | Risk quotient (PNECEC10), Ouse catchment mean flow 1st percentile ePiE PEC ([5]; STP removal 12%): 0.002 | Risk quotient (PNECEC10), Ouse catchment mean flow 99th percentile ePiE PEC ([5]; STP removal 12%): 1.226 | Risk quotient (PNECEC10), Ouse catchment mean flow median ePiE PEC ([5]; STP removal 12%): 0.083 | Risk quotient (PNECEC10), Rhine catchment low flow 99th percentile ePiE PEC ([5]; STP removal 12%): 4.597 | Risk quotient (PNECEC10), Rhine catchment low flow median ePiE PEC ([5]; STP removal 12%): 0.036 | Risk quotient (PNECEC10), Rhine catchment mean flow 1st percentile ePiE PEC ([5]; STP removal 12%): <0.002 | Risk quotient (PNECEC10), Rhine catchment mean flow 99th percentile ePiE PEC ([5]; STP removal 12%): 1.157 | Risk quotient (PNECEC10), Turia catchment low flow median ePiE PEC ([5]; STP removal 12%): 0.300 | Risk quotient (PNECEC10), Turia catchment mean flow 1st percentile ePiE PEC ([5]; STP removal 12%): <0.002 | Risk quotient (PNECEC10), Turia catchment mean flow 99th percentile ePiE PEC ([5]; STP removal 12%): 0.955 | Risk quotient (PNECEC10), Turia catchment mean flow median ePiE PEC ([5]; STP removal 12%): 0.048 | Risk quotient (PNECEC10), Average refined PEC per country ([5]; STP removal 43.6%): 0.100 | Risk quotient (PNECEC10), Highest refined PEC per country ([5]; STP removal 43.6%): 0.660 | Risk quotient (PNECEC10), Lowest refined PEC per country ([5]; STP removal 43.6%): 0.002 | Risk quotient (PNECEC10), Median refined PEC per country ([5]; STP removal 43.6%): 0.072 | Risk quotient (PNECEC10), Average refined PEC per country ([5]; STP removal 73.1%): 0.064 | Risk quotient (PNECEC10), Highest refined PEC per country ([5]; STP removal 73.1%): 0.422 | Risk quotient (PNECEC10), Lowest refined PEC per country ([5]; STP removal 73.1%): <0.002 | Risk quotient (PNECEC10), Median refined PEC per country ([5]; STP removal 73.1%): 0.047 | risk quotient for the PNECNOEC ([5]; initial use‐based Europe‐wide PEC): 2.27 | Risk quotient (PNECEC10), Maximum MEC ([5]; surface water MECs): 1.131 | Risk quotient (PNECEC10), Median MEC ([5]; surface water MECs): ~0.003 | k photo ([6]; Solar Box artificial sunlight reactor): 0.004 min^–1 | k photo ([6]; UV‐C irradiation): 0.0284 min^–1 | UV-C photodegradation ([6]; pH 7, 20 mg/L MPA, ref Marín‐García (2015)): negligible photodegradation | 3‐h EC50, respiration inhibition [7]: 2213 µg/mL | EC10, respiration inhibition [7]: 69 µg/mL (≈ 215 µM) | concentrations causing proliferation, cellular and developmental toxicity [8]: ≥ 31 ng/mL | EC50 [9]: 755 µg/mL (≈ 2360 µM)
